Source: ChEMBL document CHEMBL5316326, “Discovery of a Novel Covalent EZH2 Inhibitor Based on Tazemetostat Scaffold for the Treatment of Ovarian Cancer” (J Med Chem, 2023)
The source made the active and inactive calls. The calls are words filed in the database; no cut-off is given here.

What was measured:
[1] = system: Histone-lysine N-methyltransferase EZH2 (Homo sapiens), Q15910 [A677G]; assay: Inhibition of EZH2 […] mutant (unknown origin) at 1 nM by AlphaLlSA assay
[2] = target: T1, Histone-lysine N-methyltransferase EZH2 (Homo sapiens, UniProt Q15910); assay: Binding affinity to wild type recombinant EZH2 (494 to 737 residues) (unknown origin) expressed in Escherichia coli assessed as adduct formation incubated for 2 hrs by LC-MS analysis
Target sequence in this assay (Q15910 whole entry, looked up, the tested form may be a part): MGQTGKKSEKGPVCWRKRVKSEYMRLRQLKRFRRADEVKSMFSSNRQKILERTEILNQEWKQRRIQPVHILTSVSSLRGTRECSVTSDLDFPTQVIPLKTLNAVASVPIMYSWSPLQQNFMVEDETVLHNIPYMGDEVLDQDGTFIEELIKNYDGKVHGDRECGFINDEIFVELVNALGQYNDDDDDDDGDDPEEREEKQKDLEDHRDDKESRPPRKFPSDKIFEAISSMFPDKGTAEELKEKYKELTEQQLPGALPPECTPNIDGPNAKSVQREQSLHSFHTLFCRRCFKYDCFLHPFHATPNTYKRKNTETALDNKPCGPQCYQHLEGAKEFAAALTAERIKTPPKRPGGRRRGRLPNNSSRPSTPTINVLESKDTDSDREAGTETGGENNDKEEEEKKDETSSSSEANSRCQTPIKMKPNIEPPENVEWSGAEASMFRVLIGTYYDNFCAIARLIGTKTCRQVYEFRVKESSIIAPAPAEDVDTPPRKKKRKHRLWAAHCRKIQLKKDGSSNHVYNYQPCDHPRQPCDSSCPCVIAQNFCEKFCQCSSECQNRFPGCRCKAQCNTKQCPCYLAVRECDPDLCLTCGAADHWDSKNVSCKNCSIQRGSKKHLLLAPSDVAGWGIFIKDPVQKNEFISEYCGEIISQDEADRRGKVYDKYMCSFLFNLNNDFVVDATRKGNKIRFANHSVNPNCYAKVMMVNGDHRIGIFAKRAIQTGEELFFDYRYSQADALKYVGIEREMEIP

[3] = target: T1, Histone-lysine N-methyltransferase EZH2; assay: Inhibition of wild type EZH2 (unknown origin) by AlphaLlSA assay
Target sequence in this assay (Q15910 whole entry, the tested form may be a part): as the sequence (Q15910 whole entry, looked up, the tested form may be a part) above

[4] = target: Protein arginine N-methyltransferase 1 (Homo sapiens) (UniProt Q99873); assay: Inhibition of PRMT1 (unknown origin) at 1 to 10 uM by AlphaLlSA assay; conditions: dose 1-10 µM
[5] = target: Protein arginine N-methyltransferase 5 (Homo sapiens) (UniProt O14744); assay: Inhibition of PRMT5 (unknown origin) at 1 to 10 uM by AlphaLlSA assay; conditions: dose 1-10 µM
[6] = target: Histone-lysine N-methyltransferase EHMT2 (Homo sapiens) (UniProt Q96KQ7); assay: Inhibition of G9a (unknown origin) at 1 to 10 uM by AlphaLlSA assay; conditions: dose 1-10 µM
[7] = target: N-lysine methyltransferase SMYD2 (Homo sapiens) (UniProt Q9NRG4); assay: Inhibition of SMYD2 (unknown origin) at 1 to 10 uM by AlphaLlSA assay; conditions: dose 1-10 µM
PA-1 [8] = assay: Antiproliferative activity against human PA-1 cells assessed as inhibition of cell proliferation incubated for 72 hrs by MTT assay; format: functional, cell-based; conditions: PA-1, 72 h
A2780 [9] = assay: Antiproliferative activity against human A2780 cells assessed as inhibition of cell proliferation incubated for 72 hrs by MTT assay; format: functional, cell-based; conditions: A2780, 72 h
HEY = assay: Antiproliferative activity against human HEY cells assessed as inhibition of cell proliferation incubated for 72 hrs by MTT assay; format: functional, cell-based
OAW-42 = assay: Antiproliferative activity against human OAW-42 cells assessed as inhibition of cell proliferation incubated for 72 hrs by MTT assay; format: functional, cell-based; conditions: OAW-42, 72 h
BT-549 = assay: Antiproliferative activity against human BT-549 cells assessed as inhibition of cell proliferation incubated for 72 hrs by MTT assay; format: functional, cell-based; conditions: BT-549, 72 h
PA-1 [10] = assay: Antiproliferative activity against human PA-1 cells assessed as inhibition of cell proliferation incubated for 3 to 5 days by MTT assay; format: functional, cell-based; conditions: time 3-5 day, TDE = time-dependent effect
A2780 [11] = assay: Antiproliferative activity against human A2780 cells assessed as inhibition of cell proliferation incubated for 3 to 5 days by MTT assay; format: functional, cell-based; conditions: time 3-5 day, TDE = time-dependent effect
PA-1 [12] = assay: Inhibition of colony formation in human PA-1 cells assessed as reduction in size of colonies at 0.25 to 10 uM incubated for 14 days with medium change every 3 days by crystal violet staining method; format: functional, cell-based; conditions: dose 0.25-10 µM, time 14.0 day
A2780 [13] = assay: Inhibition of colony formation in human A2780 cells assessed as reduction in size of colonies at 0.25 to 10 uM incubated for 14 days with medium change every 3 days by crystal violet staining method; format: functional, cell-based; conditions: dose 0.25-10 µM, time 14.0 day
A2780 [14] = assay: Inhibition of colony formation in human A2780 cells assessed as reduction in number of colonies at 0.25 to 10 uM incubated for 14 days with medium change every 3 days by crystal violet staining method; format: functional, cell-based; conditions: dose 0.25-10 µM, time 14.0 day
PA-1 [15] = assay: Induction of apoptosis in human PA-1 cells assessed as late apoptotic cells at 20 uM incubated for 48 hrs by AnnexinV-FITC/PI staining based flow cytometry analysis (Rvb= 3.09%); format: functional
PA-1 [16] = assay: Induction of apoptosis in human PA-1 cells assessed as early apoptotic cells at 10 uM incubated for 48 hrs by AnnexinV-FITC/PI staining based flow cytometry analysis (Rvb= 6.89%); format: functional
PA-1 [17] = assay: Induction of apoptosis in human PA-1 cells assessed as viable cells at 5 uM incubated for 48 hrs by AnnexinV-FITC/PI staining based flow cytometry analysis (Rvb= 88.53%); format: functional; conditions: read-out: Activity
PA-1 [18] = assay: Induction of apoptosis in human PA-1 cells assessed as viable cells at 10 uM incubated for 48 hrs by AnnexinV-FITC/PI staining based flow cytometry analysis (Rvb= 88.53%); format: functional; conditions: read-out: Activity
[19] = target: T1, Histone-lysine N-methyltransferase EZH2; assay: Inhibition of EZH2 methyltransferase activity in human A2780 cells assessed as reduction in H3K27me3 level incubated for 3 days by Western blot analysis; format: cell-based
Target sequence in this assay (Q15910 whole entry, the tested form may be a part): as the sequence (Q15910 whole entry, looked up, the tested form may be a part) above

[20] = target: T1, Histone-lysine N-methyltransferase EZH2; assay: Inhibition of EZH2 methyltransferase activity in human PA-1 cells assessed as reduction in H3K27me3 level at 10 uM incubated for 3 days followed by compound washout and measured after 4 days by Western blot analysis; format: cell-based; conditions: time 3.0 day
Target sequence in this assay (Q15910 whole entry, looked up, the tested form may be a part): as above

[21] = Volume of distribution at steady state in Sprague-Dawley rat at 5 mg/kg, iv and measured upto 24 hrs by LC-MS/MS analysis; format: ADME, organism-based; conditions: in vivo
[22] = MRT(t) in Sprague-Dawley rat at 5 mg/kg, iv and measured upto 24 hrs by LC-MS/MS analysis; format: ADME, organism-based; conditions: in vivo
[23] = Half life in Sprague-Dawley rat at 100 mg/kg, po and measured upto 24 hrs by LC-MS/MS analysis; format: ADME, organism-based; conditions: in vivo
[24] = MRT(t) in Sprague-Dawley rat at 100 mg/kg, po and measured upto 24 hrs by LC-MS/MS analysis; format: ADME, organism-based; conditions: in vivo
[25] = Oral bioavailability in Sprague-Dawley rat at 100 mg/kg and measured upto 24 hrs by LC-MS/MS analysis; format: ADME, organism-based; conditions: in vivo
[26] = Protein binding in Sprague-Dawley rat plasma at 2 uM incubated for 5 hrs by equilibrium dialysis based LC-MS/MS analysis; format: ADME, cell-free; conditions: read-out: PPB (converted)
PA-1 [27] = assay: Antitumor activity against human PA-1 cells xenografted in BALB/C nude mouse assessed as tumor growth inhibition at 75 mg/kg,po BID for 21 days; format: functional; conditions: PA-1, 504 h, time 21 day, read-out: TGI
[28] = Glutathione reactivity in pH 7.4 phosphate buffer assessed as GSH-adduct formation at 1 mM incubated for 2 to 12 hrs by HPLC-MS analysis; format: physicochemical; conditions: pH 7.4, 1000 µM, time 2-12 hrs
[29] = Toxicity in BALB/C nude mouse xenografted with human PA-1 cells assessed as body weight change at 75 to 150 mg/kg,po BID for 21 days; format: organism-based; conditions: in vivo, 504 h, dose 75-150 mg/kg, time 21 day
[30] = Toxicity in BALB/C nude mouse xenografted with human PA-1 cells assessed as pathological changes in liver at 75 to 150 mg/kg,po BID for 21 days by H&E staining based microscopic analysis; format: organism-based; conditions: in vivo, 504 h, dose 75-150 mg/kg, time 21 day
[31] = Toxicity in BALB/C nude mouse xenografted with human PA-1 cells assessed as pathological changes in kidney at 75 to 150 mg/kg,po BID for 21 days by H&E staining based microscopic analysis; format: organism-based; conditions: in vivo, 504 h, dose 75-150 mg/kg, time 21 day
[32] = system: Histone-lysine N-methyltransferase EZH2 (Homo sapiens), Q15910 [Y641F]; conditions: dose 10.0 nM
Description: Inhibition of EZH2 Y614F mutant (unknown origin) at 10 nM by AlphaLlSA assay

[33] = system: Histone-lysine N-methyltransferase EZH2 (Homo sapiens), Q15910 [A677G]; conditions: dose 10.0 nM
Description: Inhibition of EZH2 A667G mutant (unknown origin) at 10 nM by AlphaLlSA assay

Histone-lysine N-methyltransferase EZH2 (Homo sapiens), Q15910 [A677G], sequence (Q15910 whole entry A677G, the tested form may be a part): as the sequence (Q15910 whole entry, looked up, the tested form may be a part) above, with A677G counted along it
Protein arginine N-methyltransferase 5 (Homo sapiens), sequence (O14744 whole entry): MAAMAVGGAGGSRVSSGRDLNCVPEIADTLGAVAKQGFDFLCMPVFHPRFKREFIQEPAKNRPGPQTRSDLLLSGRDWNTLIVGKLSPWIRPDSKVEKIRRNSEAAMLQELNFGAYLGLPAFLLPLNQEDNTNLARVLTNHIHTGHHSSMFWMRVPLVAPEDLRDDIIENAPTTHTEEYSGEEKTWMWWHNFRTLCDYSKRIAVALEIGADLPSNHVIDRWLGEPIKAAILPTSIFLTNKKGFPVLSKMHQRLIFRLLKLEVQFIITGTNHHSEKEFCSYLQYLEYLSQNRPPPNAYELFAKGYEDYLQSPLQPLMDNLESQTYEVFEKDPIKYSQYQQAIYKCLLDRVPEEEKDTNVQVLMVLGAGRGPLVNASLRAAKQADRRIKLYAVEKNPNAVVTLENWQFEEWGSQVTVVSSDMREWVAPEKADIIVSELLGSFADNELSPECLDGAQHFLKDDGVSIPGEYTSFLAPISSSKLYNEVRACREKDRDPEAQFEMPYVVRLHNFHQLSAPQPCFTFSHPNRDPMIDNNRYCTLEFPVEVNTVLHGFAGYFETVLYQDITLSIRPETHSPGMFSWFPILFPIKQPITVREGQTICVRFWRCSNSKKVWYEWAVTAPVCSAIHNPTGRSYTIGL
N-lysine methyltransferase SMYD2 (Homo sapiens), sequence (Q9NRG4 whole entry): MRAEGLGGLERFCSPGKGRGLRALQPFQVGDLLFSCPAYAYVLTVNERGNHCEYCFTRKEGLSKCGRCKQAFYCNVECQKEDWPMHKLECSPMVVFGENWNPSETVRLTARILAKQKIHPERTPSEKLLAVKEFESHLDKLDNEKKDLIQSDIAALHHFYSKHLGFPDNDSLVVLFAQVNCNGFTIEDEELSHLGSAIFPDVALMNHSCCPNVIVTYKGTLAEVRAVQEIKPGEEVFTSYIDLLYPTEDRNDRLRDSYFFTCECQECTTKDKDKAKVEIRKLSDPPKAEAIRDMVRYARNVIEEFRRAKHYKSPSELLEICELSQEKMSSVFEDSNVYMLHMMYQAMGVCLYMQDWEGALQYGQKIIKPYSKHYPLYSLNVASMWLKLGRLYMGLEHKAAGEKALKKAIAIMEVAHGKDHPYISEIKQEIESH
Protein arginine N-methyltransferase 1 (Homo sapiens), sequence (Q99873 whole entry, looked up): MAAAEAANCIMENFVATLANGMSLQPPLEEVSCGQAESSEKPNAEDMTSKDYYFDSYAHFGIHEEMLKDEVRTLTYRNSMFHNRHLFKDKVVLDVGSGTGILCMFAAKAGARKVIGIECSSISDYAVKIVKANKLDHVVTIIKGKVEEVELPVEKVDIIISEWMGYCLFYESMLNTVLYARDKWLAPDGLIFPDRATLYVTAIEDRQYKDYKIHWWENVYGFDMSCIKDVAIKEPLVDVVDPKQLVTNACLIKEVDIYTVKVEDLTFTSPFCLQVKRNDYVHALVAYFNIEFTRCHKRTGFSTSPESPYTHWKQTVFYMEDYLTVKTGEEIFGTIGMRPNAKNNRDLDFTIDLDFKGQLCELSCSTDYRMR
Histone-lysine N-methyltransferase EHMT2 (Homo sapiens), sequence (Q96KQ7 whole entry): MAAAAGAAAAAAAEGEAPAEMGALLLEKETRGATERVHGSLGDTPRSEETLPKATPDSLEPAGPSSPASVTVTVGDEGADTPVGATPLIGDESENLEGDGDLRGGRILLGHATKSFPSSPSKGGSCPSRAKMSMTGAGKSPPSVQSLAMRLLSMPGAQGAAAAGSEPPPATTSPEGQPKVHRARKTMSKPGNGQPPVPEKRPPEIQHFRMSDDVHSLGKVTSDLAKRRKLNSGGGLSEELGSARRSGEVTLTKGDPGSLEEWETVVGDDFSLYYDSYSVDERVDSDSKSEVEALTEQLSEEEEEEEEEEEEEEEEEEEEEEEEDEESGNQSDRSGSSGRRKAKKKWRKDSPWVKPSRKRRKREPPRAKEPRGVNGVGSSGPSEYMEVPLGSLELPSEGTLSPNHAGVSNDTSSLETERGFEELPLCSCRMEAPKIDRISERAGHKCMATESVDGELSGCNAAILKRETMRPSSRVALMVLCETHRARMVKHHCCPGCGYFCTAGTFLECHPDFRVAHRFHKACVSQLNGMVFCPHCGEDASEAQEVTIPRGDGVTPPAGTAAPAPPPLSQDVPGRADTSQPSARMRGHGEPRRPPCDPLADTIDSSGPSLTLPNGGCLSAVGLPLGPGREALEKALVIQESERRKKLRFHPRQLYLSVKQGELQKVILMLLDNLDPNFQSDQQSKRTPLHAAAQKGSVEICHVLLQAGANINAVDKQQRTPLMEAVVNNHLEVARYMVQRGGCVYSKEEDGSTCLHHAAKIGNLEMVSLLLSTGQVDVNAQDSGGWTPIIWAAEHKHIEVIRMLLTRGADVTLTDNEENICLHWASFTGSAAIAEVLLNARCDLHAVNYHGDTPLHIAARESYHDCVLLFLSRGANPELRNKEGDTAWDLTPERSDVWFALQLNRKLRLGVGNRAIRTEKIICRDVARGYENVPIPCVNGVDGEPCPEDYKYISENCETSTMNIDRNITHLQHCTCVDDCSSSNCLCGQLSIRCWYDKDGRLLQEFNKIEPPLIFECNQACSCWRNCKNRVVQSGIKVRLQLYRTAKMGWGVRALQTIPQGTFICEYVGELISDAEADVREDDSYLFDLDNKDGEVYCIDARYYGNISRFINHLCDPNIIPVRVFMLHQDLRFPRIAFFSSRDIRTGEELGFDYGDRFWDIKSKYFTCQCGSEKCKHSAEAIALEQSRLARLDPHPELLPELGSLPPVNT
Histone-lysine N-methyltransferase EZH2 (Homo sapiens), Q15910 [Y641F], sequence (Q15910 whole entry Y641F, looked up): as the sequence (Q15910 whole entry, looked up, the tested form may be a part) above, with Y641F counted along it

In the case of C=CC(=O)Nc1ccc(C)c(-c2cc(C(=O)NCc3c(C)cc(C)[nH]c3=O)c(C)c(N(CC)C3CCOCC3)c2)c1, the inhibition [1] is reported as “Active”, the Activity [2] is reported as “Active” and the IC50 [3] is reported as 0.00172 µM. For the same compound, the inhibition [4] was “inactive”, the inhibition [5] was “inactive” and the inhibition [6] was “inactive”. For the same compound, the inhibition [7] was “inactive”, the IC50 (PA-1 [8]) was 10.1 µM and the IC50 (A2780 [9]) was 11.2 µM. The IC50 (HEY) was 35.5 µM, the IC50 (OAW-42) was > 100 µM and the IC50 (BT-549) was 18.9 µM. The Activity (PA-1 [10]) was “Tde”, the Activity (A2780 [11]) was “Tde” and the inhibition (PA-1 [12]) was “Dose-Dependent Effect”. The inhibition (A2780 [13]) was “Dose-Dependent Effect”, the inhibition (A2780 [14]) was “Dose-Dependent Effect” and the Activity (PA-1 [15]) was 14.41%. It also gave an Activity (PA-1 [16]) of 22.39%, a viability at 5 µM (PA-1 [17]) of 83.2% and a viability at 10 µM (PA-1 [18]) of 70.5%. The IC50 [19] was 1.27 µM, the inhibition [20] was “Active” and the Vdss [21] was 0.20228 L/kg. The “MRT(t)” value [22] was 15.6 min, the half-life [23] was 46.2 min and the MRT last at 24 h [24] was 104 min. For the same compound, the bioavailability [25] was 8.73%, the fraction unbound at 5 h, 2 µM [26] was 0.0022 and the inhibition in vivo at 75 mg/kg (PA-1 [27]) was 45.3%. For the same compound, the Activity [28] was “Not Active”, the Activity [29] was “Non-Toxic” and the Activity [30] was “Non-Toxic”. The Activity [31] was “Non-Toxic”, the inhibition [32] was “Active” and the inhibition [33] was “Active”.
